The values that follow come from ChEMBL document CHEMBL1201862, “PubChem BioAssay data set” (2004).

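The compound was tested at five concentrations on cells cultured in 96-well plates, with a 48-hour exposure period. GI50 = concentration required for 50% inhibition of growth.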 Calls of active or inactive are those of the source. No stated cut-off is given here; in the data, active = GI50 up to about 1.1 µM and inactive = higher.

What all share (test): NCI-60 cell line screen, 48 h
The test system of assay [1] is UACC-62.
Assay [2] has as its system K562.
Assay [3] deals with CAKI-1.
Assay [4] concerns MDA-MB-435.
In assay [5] the test system is OVCAR-5.
Assay [6] has as its system SK-MEL-28.
For assay [7], the system named is UO-31.
For assay [8], the system named is MOLT-4.
Assay [9] deals with TK-10.
For assay [10], the system named is SNB-75.
In assay [11] the test system is NCI-H522.
For assay [12], the system named is HOP-92.
Assay [13] has as its system UACC-257.
In assay [14] the test system is OVCAR-3.
Assay [15] has as its system SNB-19.
The subject of assay [16] is CCRF-CEM.
In assay [17] the test system is SF-295.
The test system of assay [18] is SN12C.
Assay [19] concerns SF-268.
The subject of assay [20] is HCC 2998.

Regarding `NC(=S)NNCC(=O)CC(O)(C(F)(F)F)C(F)(F)Cl` (centres undefined), the GI50 in [1], in assay [2], in assay [3], in [4], in assay [5] and in assay [6] was > 100 µM (inactive) throughout. For the same compound, the GI50 in assay [7] was > 100 µM (inactive); in assay [8], > 100 µM (inactive); in assay [9], > 100 µM (inactive); in assay [10] it was 29.6 µM (inactive); in [11], > 100 µM (inactive); in assay [12] it was > 100 µM (inactive). For the same compound, the GI50 in assay [13], in [14], in assay [15], in [16] and in [17] was > 100 µM (inactive) in each case.
For the compound `CC(CCN)(CCN)[N+](=O)[O-]`, the GI50 in [1] was > 100 µM (inactive); in [2], > 100 µM (inactive); in [3] it was > 100 µM (inactive); in [4], > 100 µM (inactive); in [18], 77.3 µM (inactive); in [5], > 100 µM (inactive). The GI50 in assay [6], in assay [19], in assay [7], in assay [8], in assay [9] and in assay [10] was > 100 µM (inactive) each time. Also, the GI50 in [11], in [12], in assay [13], in [14], in assay [15] and in [16] was > 100 µM (inactive) each time. Moreover, the GI50 in assay [17] was > 100 µM (inactive).
As to `C/C(=N\NC(=S)N1CCN(c2ccccn2)CC1)c1nccs1`, the GI50 in assay [1] was 0.122 µM (active); in assay [2] it was 0.01 µM (active); in assay [3], 2.42 µM (inactive); in assay [20], 0.675 µM (active); in [4], 0.521 µM (active); in assay [18], 1.2 µM (inactive). Moreover, the GI50 in [5] was 0.867 µM (active); in [6], 0.792 µM (active); in assay [19] it was 0.794 µM (active); in assay [7] it was 0.516 µM (active); in assay [8], < 0.0225 µM (active); in [9] it was 1.91 µM (inactive). Also, the GI50 in assay [10] was 2.82 µM (inactive); in assay [12], 2.26 µM (inactive); in [13], 0.214 µM (active); in assay [15] it was 1.58 µM (inactive); in [16], 0.01 µM (active); in [17], 0.822 µM (active).
`O=C(O)CN1CCN2CCCCCN(CC1)CCN(CC(=O)O)CC2`: the GI50 in [1], in assay [2], in assay [3], in assay [4], in [18] and in assay [5] was > 100 µM (inactive) each time. Besides, the GI50 in [6] is > 100 µM (inactive); in assay [7], > 100 µM (inactive); in assay [9], > 100 µM (inactive); in assay [10] it was 11.4 µM (inactive); in assay [11], 53.3 µM (inactive); in [12], > 100 µM (inactive). Further, the GI50 in assay [13], in [14], in assay [15], in assay [16] and in assay [17] was > 100 µM (inactive) in each case.
With `Cc1ccc(Nc2nc(=O)c3c4ccccc4n(C(=O)OC(C)(C)C)c3s2)cc1`, the GI50 in [1] is 18.5 µM (inactive); in [2] it was 27.4 µM (inactive); in [3], 18.2 µM (inactive); in assay [4], 4.9 µM (inactive); in assay [5], 19.7 µM (inactive); in [6], 44.9 µM (inactive). For the same compound, the GI50 was 20.6 µM (inactive) in assay [19]; 5.9 µM (inactive) in [7]; 53 µM (inactive) in assay [8]; 37.8 µM (inactive) in assay [9]; > 100 µM (inactive) in assay [10]; 22.5 µM (inactive) in assay [11]. In addition, the GI50 is 23.1 µM (inactive) in assay [12]; 51.1 µM (inactive) in [13]; 23.1 µM (inactive) in assay [14]; 79.1 µM (inactive) in assay [15]; 30.3 µM (inactive) in [16]; 23 µM (inactive) in [17].
As for `CC(=O)c1cccc(Nc2nc3ccccc3c3occc23)c1`, the GI50 was > 100 µM (inactive) in [2]; 32.8 µM (inactive) in assay [3]; 46.1 µM (inactive) in assay [20]; 33.3 µM (inactive) in assay [4]; 13.2 µM (inactive) in assay [18]; 53.6 µM (inactive) in [5]. Further, the GI50 was 27.3 µM (inactive) in assay [6]; 22.2 µM (inactive) in assay [19]; > 100 µM (inactive) in assay [8]; 15 µM (inactive) in assay [9]; 22.7 µM (inactive) in [10]; 9.64 µM (inactive) in [12]. For the same compound, the GI50 in assay [13] is > 100 µM (inactive); in assay [14] it was 34.2 µM (inactive); in assay [15], 20.2 µM (inactive); in assay [16] it was > 100 µM (inactive); in assay [17], 16.2 µM (inactive).
For `N=C(CCl)NC1CN2CCC1CC2` (centres undefined), the GI50 in assay [1] was > 100 µM (inactive); in [2] it was > 100 µM (inactive); in assay [3], 50.9 µM (inactive); in assay [4], > 100 µM (inactive); in assay [18] it was 66.7 µM (inactive); in assay [5], 75 µM (inactive). Also, the GI50 in assay [6] was > 100 µM (inactive); in assay [19] it was 92.9 µM (inactive); in [8], 39.7 µM (inactive); in assay [9], > 100 µM (inactive); in assay [10], > 100 µM (inactive); in assay [11], 19.4 µM (inactive). Besides, the GI50 in [12] is > 100 µM (inactive); in [13], > 100 µM (inactive); in assay [14], > 100 µM (inactive); in assay [15], > 100 µM (inactive); in assay [16] it was 18.6 µM (inactive); in assay [17], > 100 µM (inactive).
As to `COc1ccccc1/C=C/c1ccnc2ccccc12`, the GI50 in [1] is 11.7 µM (inactive); in [2] it was 10.7 µM (inactive); in [3], 14.6 µM (inactive); in assay [20], 17.5 µM (inactive); in [4] it was 7.16 µM (inactive); in [18], 18.1 µM (inactive). For the same compound, the GI50 is 17.3 µM (inactive) in assay [5]; 17.4 µM (inactive) in [6]; 14.2 µM (inactive) in assay [19]; 7.87 µM (inactive) in assay [8]; 16.8 µM (inactive) in [9]; 3.37 µM (inactive) in assay [10]. The GI50 in assay [12] was 12.8 µM (inactive); in assay [13] it was 16 µM (inactive); in [14], 13.8 µM (inactive); in [15], 14.3 µM (inactive); in [16] it was 14.2 µM (inactive); in [17], 14.2 µM (inactive).
Regarding `CC(SC(=S)N1CCCCC1)C(=O)Nc1nnc(-c2ccc(Cl)cc2)o1` (centres undefined), the GI50 was 25.2 µM (inactive) in assay [1]; 41.4 µM (inactive) in assay [2]; 34.8 µM (inactive) in assay [20]; 34.1 µM (inactive) in assay [4]; 17.5 µM (inactive) in [18]; 51.8 µM (inactive) in assay [5]. Besides, the GI50 in [6] is 63.7 µM (inactive); in assay [19] it was 17.5 µM (inactive); in assay [7], 17.8 µM (inactive); in assay [9] it was 50.6 µM (inactive); in assay [10], 20.1 µM (inactive); in [12], 45.8 µM (inactive). Also, the GI50 in assay [13] is 37.5 µM (inactive); in assay [14], 11 µM (inactive); in assay [15] it was 31.4 µM (inactive).
As to `CC1(C)CC[C@]2(C)[C@@H](O)C[C@]3(C)C(=CC[C@@H]4[C@@]5(C)CC[C@H](O)C(C)(C)[C@@H]5CC[C@]43C)[C@@H]2C1`, the GI50 in assay [1] is 58.7 µM (inactive); in [2] it was > 100 µM (inactive); in [3], 34.5 µM (inactive); in assay [4] it was > 100 µM (inactive); in assay [18], 56.9 µM (inactive); in assay [5], 97.3 µM (inactive). For the same compound, the GI50 in assay [6] was > 100 µM (inactive); in [19], 46.3 µM (inactive); in assay [7], 20.4 µM (inactive); in assay [8], > 100 µM (inactive); in assay [9], 27.9 µM (inactive); in assay [11], 25.7 µM (inactive). Moreover, the GI50 is 16.2 µM (inactive) in assay [12]; 49.5 µM (inactive) in assay [13]; 65.2 µM (inactive) in [14]; 61.5 µM (inactive) in assay [15]; > 100 µM (inactive) in [16]; 29.4 µM (inactive) in assay [17].
As for `COC(=O)C1(NC(=O)C(N)CC(=O)O)C(C)C1C` (centres undefined), the GI50 in assay [1], in assay [2], in assay [3], in [4], in [18] and in assay [5] was > 100 µM (inactive) each time. Besides, the GI50 in [6], in assay [19], in assay [7], in [8], in [9] and in assay [10] was > 100 µM (inactive) throughout. Also, the GI50 in assay [11], in assay [12], in [13], in assay [14], in assay [15] and in assay [16] was > 100 µM (inactive) throughout. In assay [17], the GI50 is > 100 µM (inactive).
